For one assay, the system named is SF-539. The assay is described as follows: Growth inhibition of human SF539 cells after 48 hrs by SRB staining method. The class given is functional. The note with it: SF-539, 48 h; for TGI: read-out: pTGI (converted). In general terms: The SRB assay estimates cell density from bound dye.
The target in assay [1] is Thymidylate synthase (Escherichia coli, UniProt C3SWJ7).
The target of assay [2] is Thymidylate synthase (Escherichia coli) (UniProt C3SWJ7). The assay is described as follows: Inhibition of Escherichia coli thymidylate synthase at 10 uM.
For assay [3], the target named is Thymidylate synthase (Homo sapiens, UniProt P04818). The assay is described as follows: Inhibition of human thymidylate synthase at 10 uM.

Calls of active or inactive are those of the source. The rule behind the calls is not given here.

Chain of Thymidylate synthase (Homo sapiens, UniProt P04818) (P04818 2-313 limits assumed): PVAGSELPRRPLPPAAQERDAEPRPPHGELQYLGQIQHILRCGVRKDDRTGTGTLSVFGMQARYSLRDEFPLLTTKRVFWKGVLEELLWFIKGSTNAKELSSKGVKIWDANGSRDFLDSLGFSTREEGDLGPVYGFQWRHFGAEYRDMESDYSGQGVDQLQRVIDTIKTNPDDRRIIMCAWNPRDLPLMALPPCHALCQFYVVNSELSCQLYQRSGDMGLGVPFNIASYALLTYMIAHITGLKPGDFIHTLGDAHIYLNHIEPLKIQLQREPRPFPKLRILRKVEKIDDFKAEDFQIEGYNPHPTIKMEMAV
Chain of Thymidylate synthase (Escherichia coli) (C3SWJ7 1-264): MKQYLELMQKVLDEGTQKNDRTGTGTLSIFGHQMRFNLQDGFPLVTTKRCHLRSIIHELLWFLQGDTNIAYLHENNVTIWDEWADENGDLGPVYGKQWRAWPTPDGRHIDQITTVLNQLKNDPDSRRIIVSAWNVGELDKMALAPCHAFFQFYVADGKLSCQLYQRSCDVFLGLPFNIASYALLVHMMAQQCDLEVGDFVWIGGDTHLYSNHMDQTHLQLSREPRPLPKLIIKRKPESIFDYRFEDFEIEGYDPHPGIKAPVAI
Chain of Thymidylate synthase (Escherichia coli, UniProt C3SWJ7) (C3SWJ7 whole entry): as the sequence (C3SWJ7 1-264) above

By GI50 is commonly meant the concentration that inhibits growth by half. Low readings indicate greater sensitivity of the cells, high ones lower sensitivity of the cells. One may read the LC50 as the concentration that kills 50% of the test population. Read a high LC50 as lower toxicity. For the compound `COc1cc(Nc2nc3cc(N)cc(N)c3nc2-c2ccccc2)cc(OC)c1OC`, in the assay on SF-539, the GI50 was 14.8 µM, the LC50 was 56.2 µM and the TGI was 28.8 µM.
As a reminder, the Ki is the dissociation constant of the complex between target and ligand, obtained from inhibition or displacement. The low end stands for higher affinity, the high end for lower affinity. On to `Nc1cc(N)c2nc(-c3ccccc3)c(Nc3ccc(Cl)c(Cl)c3)nc2c1`, for which, in the assay on SF-539, the GI50 was 17 µM, the LC50 is 72.4 µM and the TGI was 35.5 µM. In addition, the affinity on Thymidylate synthase [1], expressed as Ki, was 3 µM.
As for `COc1ccc(Nc2nc3cc(N)cc(N)c3nc2-c2ccccc2)cc1OC`, in the assay with SF-539, it took 16.2 µM to inhibit growth by half (GI50), the LC50 was 87.1 µM and the TGI was 37.2 µM. The outcome in assay [2] was inactive. The result at Thymidylate synthase [3] was inactive.
Consider `Nc1cc(N)c2nc(-c3ccccc3)c(Nc3ccc(F)cc3)nc2c1`, for which, in the assay with SF-539, growth was halved (GI50) at 11 µM and the TGI is 24.5 µM. Affinity on Thymidylate synthase [1] was put at a Ki of 70 µM. Moreover, the result on Thymidylate synthase [3] was inactive.
Turning to `CCOC(=O)CCC(NC(=O)c1ccc(Nc2nc3cc(N)cc(N)c3nc2-c2ccccc2)cc1)C(=O)OCC` (stereo not given), in the assay on SF-539, the GI50 was 27.5 µM, the LC50 was above 100 µM and the TGI is above 100 µM. Moreover, in assay [2], the result was inactive.

The record behind these values is ChEMBL document CHEMBL1149774, “Synthesis of N-(5,7-diamino-3-phenyl-quinoxalin-2-yl)-3,4,5-substituted anilines and N-[4[(5,7-diamino-3-phenylquinoxalin-2-yl)amino]benzoyl]-l-glutamic acid diethyl ester: evaluation of in vitro anti-cancer and anti-folate activities” (Eur J Med Chem, 2008).
